Measurements taken from ChEMBL document CHEMBL5303573, “Mapping human microbiome drug metabolism by gut bacteria and their genes” (Nature, 2019).

How the values were obtained:
[1] = bacteroides fragilis, 12 h, 2 µM
Description: The drug is tested on Bacteroides fragilis strain: NCTC 9343 for biotransformation. The drug concentrations were measured before and after a 12-h incubation by liquid-chromatography-coupled mass spectrometry (LC–MS)

[2] = The drug is tested on Bacteroides coprophilus strain: DSM18228 for biotransformation. The drug concentrations were measured before and after a 12-h incubation by liquid-chromatography-coupled mass spectrometry (LC–MS); settings: 2 µM
[3] = The drug is tested on Bacteroides fragilis strain: ATCC43859 for biotransformation. The drug concentrations were measured before and after a 12-h incubation by liquid-chromatography-coupled mass spectrometry (LC–MS); settings: 2 µM
[4] = The drug is tested on Blautia luti strain: DSM14534 for biotransformation. The drug concentrations were measured before and after a 12-h incubation by liquid-chromatography-coupled mass spectrometry (LC–MS); type: ADME; set-up: dose 2 uM, timepoint 0 vs 12 hours; settings: 2 µM
[5] = anaerostipes sp., 12 h, 2 µM
Description: The drug is tested on Anaerostipes sp. strain: fecal isolate for biotransformation. The drug concentrations were measured before and after a 12-h incubation by liquid-chromatography-coupled mass spectrometry (LC–MS)

[6] = The drug is tested on Clostridium ramosum strain: DSM1402 for biotransformation. The drug concentrations were measured before and after a 12-h incubation by liquid-chromatography-coupled mass spectrometry (LC–MS); settings: thomasclavelia ramosa, 2 µM
[7] = The drug is tested on Subdoligranulum variabile strain: DSM15176 for biotransformation. The drug concentrations were measured before and after a 12-h incubation by liquid-chromatography-coupled mass spectrometry (LC–MS); settings: 2 µM
[8] = The drug is tested on Clostridium symbiosum strain: ATCC14940 for biotransformation. The drug concentrations were measured before and after a 12-h incubation by liquid-chromatography-coupled mass spectrometry (LC–MS); settings: 2 µM
[9] = The drug is tested on Bacteroides dorei strain: DSM17855 for biotransformation. The drug concentrations were measured before and after a 12-h incubation by liquid-chromatography-coupled mass spectrometry (LC–MS); settings: phocaeicola dorei, 2 µM
[10] = The drug is tested on Ruminococcus torques strain: ATCC27756 for biotransformation. The drug concentrations were measured before and after a 12-h incubation by liquid-chromatography-coupled mass spectrometry (LC–MS); type: ADME; set-up: dose 2 uM, timepoint 0 vs 12 hours; settings: 2 µM
[11] = The drug is tested on Bacteroides fragilis strain: HMW615 for biotransformation. The drug concentrations were measured before and after a 12-h incubation by liquid-chromatography-coupled mass spectrometry (LC–MS); settings: 2 µM
[12] = The drug is tested on Parabacteroides merdae strain: ATCC43184 for biotransformation. The drug concentrations were measured before and after a 12-h incubation by liquid-chromatography-coupled mass spectrometry (LC–MS); settings: 2 µM
[13] = The drug is tested on Clostridium sporogenes strain: ATCC15579 for biotransformation. The drug concentrations were measured before and after a 12-h incubation by liquid-chromatography-coupled mass spectrometry (LC–MS); settings: 2 µM
[14] = The drug is tested on Collinsella intestinalis strain: DSM13280 for biotransformation. The drug concentrations were measured before and after a 12-h incubation by liquid-chromatography-coupled mass spectrometry (LC–MS); settings: 2 µM
[15] = The drug is tested on Bacteroides fragilis strain: HMW610 for biotransformation. The drug concentrations were measured before and after a 12-h incubation by liquid-chromatography-coupled mass spectrometry (LC–MS); settings: 2 µM
[16] = bacteroides fragilis, 12 h, 2 µM; remark: listed apart in the source
Description: The drug is tested on Bacteroides fragilis strain: 3397 (T10) for biotransformation. The drug concentrations were measured before and after a 12-h incubation by liquid-chromatography-coupled mass spectrometry (LC–MS)

[17] = The drug is tested on Ruminococcus lactaris strain: ATCC29176 for biotransformation. The drug concentrations were measured before and after a 12-h incubation by liquid-chromatography-coupled mass spectrometry (LC–MS); settings: 2 µM
[18] = The drug is tested on Enterobacter cancerogenus strain: ATCC35316 for biotransformation. The drug concentrations were measured before and after a 12-h incubation by liquid-chromatography-coupled mass spectrometry (LC–MS); settings: 2 µM
[19] = The drug is tested on Bacteroides cellulosilyticus strain: DSM14838 for biotransformation. The drug concentrations were measured before and after a 12-h incubation by liquid-chromatography-coupled mass spectrometry (LC–MS); settings: 2 µM
[20] = The drug is tested on Alistipes indistinctus strain: DSM22520 for biotransformation. The drug concentrations were measured before and after a 12-h incubation by liquid-chromatography-coupled mass spectrometry (LC–MS); settings: 2 µM

Bacterial Biotransformation [1] | Bacterial Biotransformation [2] | Bacterial Biotransformation [3] | Bacterial Biotransformation [4] | Bacterial Biotransformation [5] | Bacterial Biotransformation [6] | Bacterial Biotransformation [8] | Bacterial Biotransformation [9] | Bacterial Biotransformation [10] | Bacterial Biotransformation [11] | Bacterial Biotransformation [12] | Bacterial Biotransformation [13] | Bacterial Biotransformation [14] | Bacterial Biotransformation [15] | Bacterial Biotransformation [16] | Bacterial Biotransformation [17] | Bacterial Biotransformation [18] | Bacterial Biotransformation [19] | Bacterial Biotransformation [20] | SMILES | Bacterial Biotransformation [7]
Compound NOT metabolized | Compound NOT metabolized | Compound NOT metabolized | Compound NOT metabolized | Compound NOT metabolized | Compound NOT metabolized | Compound NOT metabolized | Compound NOT metabolized | Compound NOT metabolized | Compound NOT metabolized |  | Compound NOT metabolized | Compound NOT metabolized |  | Compound NOT metabolized | Compound NOT metabolized | Compound NOT metabolized | Compound NOT metabolized | Compound NOT metabolized | CC(C)c1nc(N(C)S(C)(=O)=O)nc(-c2ccc(F)cc2)c1/C=C/[C@@H](O)C[C@@H](O)CC(=O)[O-].CC(C)c1nc(N(C)S(C)(=O)=O)nc(-c2ccc(F)cc2)c1/C=C/[C@@H](O)C[C@@H](O)CC(=O)[O-].[Ca+2] [ROSUVASTATIN CALCIUM] | 
Compound NOT metabolized |  | Compound metabolized | Compound NOT metabolized | Compound NOT metabolized | Compound NOT metabolized | Compound NOT metabolized |  | Compound NOT metabolized | Compound metabolized | Compound NOT metabolized | Compound NOT metabolized | Compound NOT metabolized | Compound metabolized | Compound metabolized | Compound NOT metabolized | Compound NOT metabolized | Compound NOT metabolized | Compound NOT metabolized | CC(C)NCC(O)c1ccc(NS(C)(=O)=O)cc1 (configuration not stated) [SOTALOL] | 
Compound metabolized | Compound metabolized | Compound metabolized | Compound NOT metabolized | Compound NOT metabolized | Compound NOT metabolized | Compound NOT metabolized | Compound metabolized | Compound NOT metabolized | Compound metabolized |  |  | Compound NOT metabolized | Compound metabolized | Compound metabolized | Compound NOT metabolized | Compound NOT metabolized | Compound metabolized | Compound NOT metabolized | Cc1ccc(S(=O)(=O)NC(=O)NN2CCCCCC2)cc1 [TOLAZAMIDE] | 

More lines, now with the values behind:

SMILES | Bacterial Biotransformation [1] | Bacterial Biotransformation [2] | Bacterial Biotransformation [3] | Bacterial Biotransformation [4] | Bacterial Biotransformation [5] | Bacterial Biotransformation [6] | Bacterial Biotransformation [8] | Bacterial Biotransformation [9] | Bacterial Biotransformation [10] | Bacterial Biotransformation [11] | Bacterial Biotransformation [12] | Bacterial Biotransformation [13] | Bacterial Biotransformation [14] | Bacterial Biotransformation [15] | Bacterial Biotransformation [16] | Bacterial Biotransformation [17] | Bacterial Biotransformation [18] | Bacterial Biotransformation [19] | Bacterial Biotransformation [20] | Bacterial Biotransformation [7]
COc1cc2nc(N(C)CCCNC(=O)C3CCCO3)nc(N)c2cc1OC (configuration not stated) [ALFUZOSIN] | Compound NOT metabolized | Compound NOT metabolized | Compound NOT metabolized | Compound NOT metabolized | Compound NOT metabolized | Compound NOT metabolized | Compound NOT metabolized | Compound metabolized | Compound NOT metabolized | Compound NOT metabolized | Compound NOT metabolized | Compound NOT metabolized | Compound NOT metabolized |  |  |  |  |  |  | Compound NOT metabolized
O=P(O)(O)O.c1ccc(CN(CC2=NCCN2)c2ccccc2)cc1 [ANTAZOLINE PHOSPHATE] | Compound NOT metabolized | Compound NOT metabolized | Compound NOT metabolized | Compound NOT metabolized | Compound NOT metabolized |  | Compound NOT metabolized | Compound NOT metabolized | Compound NOT metabolized |  | Compound NOT metabolized | Compound NOT metabolized | Compound NOT metabolized | Compound NOT metabolized | Compound NOT metabolized | Compound NOT metabolized |  |  |  | Compound NOT metabolized
Br.CN1CCC[C@@H]1Cc1c[nH]c2ccc(CCS(=O)(=O)c3ccccc3)cc12 [ELETRIPTAN HYDROBROMIDE] | Compound NOT metabolized | Compound NOT metabolized | Compound NOT metabolized | Compound NOT metabolized | Compound NOT metabolized | Compound NOT metabolized | Compound NOT metabolized | Compound NOT metabolized | Compound NOT metabolized |  | Compound NOT metabolized | Compound NOT metabolized | Compound NOT metabolized | Compound NOT metabolized | Compound NOT metabolized | Compound NOT metabolized |  |  |  | Compound NOT metabolized
CCCCc1nc(Cl)c(CO)n1Cc1ccc(-c2ccccc2-c2nn[nH]n2)cc1 [LOSARTAN] | Compound metabolized | Compound NOT metabolized | Compound metabolized | Compound NOT metabolized | Compound NOT metabolized | Compound NOT metabolized | Compound NOT metabolized | Compound metabolized | Compound NOT metabolized | Compound metabolized | Compound metabolized | Compound NOT metabolized | Compound NOT metabolized | Compound metabolized |  | Compound NOT metabolized | Compound NOT metabolized | Compound metabolized | Compound NOT metabolized | 
CC(N)C12CC3CC(CC(C3)C1)C2 (configuration not stated) [RIMANTADINE] | Compound NOT metabolized | Compound NOT metabolized | Compound NOT metabolized | Compound NOT metabolized | Compound NOT metabolized | Compound NOT metabolized | Compound NOT metabolized |  | Compound NOT metabolized | Compound NOT metabolized | Compound NOT metabolized | Compound NOT metabolized | Compound NOT metabolized | Compound NOT metabolized | Compound NOT metabolized | Compound NOT metabolized | Compound NOT metabolized | Compound NOT metabolized | Compound NOT metabolized | 
